“Also recorded” adds a separate entry of the source.
Test system: HUVEC cells
Assay: Immunostaining of P-selectin and VCAM-1 on endothelial cells upon TNF-α treatment
Format: cell-based, human
Settings: TNF-α 20 ng/mL, 4 hrs, confocal
Protocol: Immunostaining: To determine P-selectin and VCAM-1 expression on endothelial cells upon TNF-α-treatment, HUVEC cells were cultured on a cover glass and treated with 20 ng/mL of TNF-α at 37° C. for 4 hrs. The cells were fixed with 4% paraformaldehyde and blocked using a 5% BSA solution in PBS for 30 min. The cells were then incubated with primary antibodies against P-selectin or VCAM-1 for 1 hr at room temperature. The cells were incubated with fluorescence-labeled secondary antibodies for 1 hr at room temperature. The cells were washed, mounted with a mounting medium, and observed using a confocal microscope (Zeiss, Dublin, Calif.).
Potential advantages of using hMSC-derived exosomes would include the utilization of the homing properties of hMSCs to inflamed endothelia that are frequently found in cancerous regions. […] Human umbilical vein endothelial cells (HUVEC) were used to determine if the exosomes could potentially interact with the cells upon activation using TNF-α. TNF-α is known to induce expression of vascular cell adhesion molecule-1 (VCAM-1) and P-selectin that are directly involved in the hMSC binding to endothelial layers. The expression of VLA-4 and CD162 that are ligands binding to VCAM-1 and P-selectin, respectively, from the exosomes was confirmed using western blotting (FIG. 9).

TNF-α
P-selectin expression: overexpress; also recorded: increased | VCAM-1 expression: overexpress; also recorded: increased

Reference: patent US11344627B2, “Dendrimer-exosome hybrid nanoparticles as a delivery platform” (WISCONSIN ALUMNI RESEARCH FOUNDATION, priority 2017, dated 2022)
